Assay results from patent publication US5395836A, “8-tricycloalkyl xanthine derivatives” (Kyowa Hakko Kogyo Co., Ltd., priority 1993, dated 1995).
Values belong to the compound of their own block, whether it stands above or below them.

Key:
adenosine A1 receptor = target: T1, adenosine A1 receptor (Rattus norvegicus, UniProt P25099); assay: Adenosine Receptor Antagonizing Activity (Adenosine A1 Receptor Binding Test); conditions: rat corpus striatum; 3H-CHA 1.1 nM; 25° C., 90 min; Cheng-Prusoff
T1 construct: from tissue; host or cells: rat corpus striatum, washed membrane suspension
T1 sequence (P25099 1-326): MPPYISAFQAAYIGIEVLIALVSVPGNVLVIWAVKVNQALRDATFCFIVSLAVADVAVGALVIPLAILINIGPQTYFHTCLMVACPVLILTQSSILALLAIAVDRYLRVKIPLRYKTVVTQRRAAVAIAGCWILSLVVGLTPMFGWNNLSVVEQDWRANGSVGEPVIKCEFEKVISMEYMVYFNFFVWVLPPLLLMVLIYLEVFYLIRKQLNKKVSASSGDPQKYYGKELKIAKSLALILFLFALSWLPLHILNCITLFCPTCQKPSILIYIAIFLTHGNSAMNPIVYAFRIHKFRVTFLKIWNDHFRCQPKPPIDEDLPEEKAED
Protocol: The test was conducted according to the method of Bruns et al. [Proc. Natl. Acad. Sci. U.S.A., 77., 5547 (1980)] with slight modification.
Corpus striatum of a rat was suspended in ice-cooled 50 mM Tris hydroxymethyl aminomethane hydrochloride (Tris HCl) buffer (pH 7.7) by using Polytron homogenizer (manufactured by Kinematicas Co.). The suspension was centrifuged (50,000×g, 10 minutes), and the precipitate was suspended again in the same amount of 50 mM Tris HCl buffer. The suspension was centrifuged under the same conditions, and the final precipitate was suspended once again in 50 mM Tris HCl buffer to give a tissue concentration of 100 mg (wet weight)/ml. The tissue suspension was allowed to stand in the presence of 0.02 unit/mg tissue of adenosine deaminase (manufacture by Sigma Co.) at 37° C. for 30 minutes. The tissue suspension was centrifuged (50,000×g, 10 minutes) and to the obtained precipitates was added 50 mM Tris HCl buffer to give a tissue concentration of 10 mg (wet weight)/ml.
To 1 ml of the tissue suspension thus prepared, were added 50 μl of cyclohexyladenosine labeled with tritium (^3 H-CHA: 27 Ci/mmol, manufactured by New England Nuclear) (final concentration: 1.1 nM), and 50 μl of a test compound. The resulting mixture was allowed to stand at 25° C. for 90 minutes and then rapidly filtered by suction through a glass fiber filter (GF/C, manufactured by Whatman Co.). The filter was immediately washed three times with 5 ml each of ice-cooled 50 mM Tris HCl buffer, and transferred to a vial, and scintillator (EX-H by Wako Pure Chemical Industries, Ltd.) was added thereto. The radioactivity on the filter was determined with a liquid scintillation counter (manufactured by Packard Instrument Co.).
The inhibition rate (Ki value) of the test compound against the binding of A1 receptors (^3 H-CHA binding) was calculated by the equation of Cheng-Prusoff. [formula]

Diuretic Effect = assay type: in vivo, rat (Wistar); conditions: po, 4 hours; for Increase in amount of K+ excreted Δ(%) / Increase in amount of Na+ excreted Δ(%) / Increase in amount of urine Δ(%): control 0; for Na+/K+: control 1.00
Protocol: The experiment was performed by using Wistar rats (male; 150 to 300 g). The rats were starved for 18 hours prior to the administration of a test compound (n=4 to 5). After test compounds were dissolved in 0.4% methanol, 1% dimethylsulfoxide and 0.01N sodium hydroxide/physiological saline, and administered intravenously, the physiological saline (25 ml/kg) was orally administered. Alternatively, test compounds dissolved in the physiological saline (25 ml/kg) was orally administered to the rats. Urine was collected from the rats during 4 hours after the oral administration, and urine volume was measured by a graduated measuring cylinder, and the electrolytes in the urine (Na^+ and K^+) were determined by flame photometer (775 A manufactured by Hitachi, Ltd.).

[1] = Renal-protecting Effect (Glycerol-Induced Renal Failure Model); assay type: in vivo, rat (Wistar); conditions: for Amount of creatinine in blood serum / Amount of uria nitrogen in blood serum: ip, 24 h after glycerol
Protocol: A renal failure is a state where the renal function is lowered and the homeostasis of a body fluid can be no longer maintained. It is known that an acute renal failure characteristic of uriniferous tubule disorder is caused by subcutaneous or intramuscular injection of glycerol to rats [Can. J. Physiol.
Male Wistar rats were kept deprived of water for 18 hours, and served for the test. A test compound was intraperitoneally administered to the rats (dosage: 0.1 ml/100 g). After 30 minutes, the rats were anesthetized with ether and 50% glycerol was subcutaneously administered (dosage: 0.8 ml/100 g) to the rats, pinching the dorsal skin. Twenty four hours after the administration of glycerol, the rats were anesthetized with ether and 5 ml of blood was collected from the abdominal aorta. The collected blood was allowed to stand for 30 minutes or longer and then centrifuged at 3,000 rpm for 10 minutes, and the amounts of the serum creatinine and the serum urine-nitrogen (UN) were determined by auto analyzer (Olympus AU510) [creatinine test (Jaffe method), UN test (enzyme method); both tests were used in Olympus AU500/550 exclusive reagent […].

[2] = 0.03 mg/kg, control 4.55 ± 0.24
[3] = 0.03 mg/kg, control 137.2 ± 5.0
[4] = 0.01 mg/kg, control 3.90 ± 0.24 (compounds 6, 7), 4.35 ± 0.23 (compound 3)
[5] = 0.01 mg/kg, control 124.9 ± 7.5 (compounds 6, 7), 139.7 ± 10.2 (compound 3)

Ki (adenosine A1 receptor): 0.31 nM
SMILES: CCCn1c(=O)c2[nH]c(C34C[C@H]5CC3C[C@@H](C4)[C@H]5O)nc2n(CCC)c1=O (relative stereo) [Compound 4, 8-(cis-9-hydroxy-3tricyclo[3.3.1.0^3,7]nonyl)-1,3-dipropylxanthine]
Increase in amount of K+ excreted Δ(%) (Diuretic Effect; 0.01 mg/kg): 43%
Increase in amount of Na+ excreted Δ(%) (Diuretic Effect; 0.01 mg/kg): 167%
Increase in amount of urine Δ(%) (Diuretic Effect; 0.01 mg/kg): 200%
Na+/K+ (Diuretic Effect; 0.01 mg/kg): 1.86
Increase in amount of K+ excreted Δ(%) (Diuretic Effect; 1.6 mg/kg): 35%
Increase in amount of Na+ excreted Δ(%) (Diuretic Effect; 1.6 mg/kg): 180%
Increase in amount of urine Δ(%) (Diuretic Effect; 1.6 mg/kg): 232%
Na+/K+ (Diuretic Effect; 1.6 mg/kg): 2.07
Amount of creatinine in blood serum [1, 2]: 2.32 ± 0.48 mg/dL
Amount of uria nitrogen in blood serum [1, 3]: 75.6 ± 13.9 mg/dL

Ki (adenosine A1 receptor): 0.37 nM
SMILES: CCCn1c(=O)c2[nH]c(C34CC5CC3CC(C4)C5=O)nc2n(CCC)c1=O [Compound 1, 8-(9-Oxo-3-tricyclo[3.3.1.0^3,7]nonyl)-1,3-dipropylxanthine]
Increase in amount of K+ excreted Δ(%) (Diuretic Effect; 0.01 mg/kg): 37%
Increase in amount of Na+ excreted Δ(%) (Diuretic Effect; 0.01 mg/kg): 144%
Increase in amount of urine Δ(%) (Diuretic Effect; 0.01 mg/kg): 149%
Na+/K+ (Diuretic Effect; 0.01 mg/kg): 1.78
Increase in amount of K+ excreted Δ(%) (Diuretic Effect; 1.6 mg/kg): 36%
Increase in amount of Na+ excreted Δ(%) (Diuretic Effect; 1.6 mg/kg): 193%
Increase in amount of urine Δ(%) (Diuretic Effect; 1.6 mg/kg): 258%
Na+/K+ (Diuretic Effect; 1.6 mg/kg): 2.15
Amount of creatinine in blood serum [1, 2]: 2.51 ± 0.41 mg/dL
Amount of uria nitrogen in blood serum [1, 3]: 81.4 ± 15.9 mg/dL

Ki (adenosine A1 receptor): 0.59 nM
SMILES: CCCn1c(=O)c2[nH]c(C34CC5CC(C3)C(=O)C4C5)nc2n(CCC)c1=O (stereo not shown) [Compound 2, 8-(6-Oxo-3-tricyclo[3.3.1.0^3,7]nonyl)-1,3-dipropylxanthine]
Increase in amount of K+ excreted Δ(%) (Diuretic Effect; 0.1 mg/kg): 32%
Increase in amount of Na+ excreted Δ(%) (Diuretic Effect; 0.1 mg/kg): 177%
Increase in amount of urine Δ(%) (Diuretic Effect; 0.1 mg/kg): 211%
Na+/K+ (Diuretic Effect; 0.1 mg/kg): 2.10
Increase in amount of K+ excreted Δ(%) (Diuretic Effect; 1.6 mg/kg): 8%
Increase in amount of Na+ excreted Δ(%) (Diuretic Effect; 1.6 mg/kg): 188%
Increase in amount of urine Δ(%) (Diuretic Effect; 1.6 mg/kg): 241%
Na+/K+ (Diuretic Effect; 1.6 mg/kg): 2.67
Amount of creatinine in blood serum [1, 2]: 2.51 ± 0.24 mg/dL
Amount of uria nitrogen in blood serum [1, 3]: 85.0 ± 8.7 mg/dL

Ki (adenosine A1 receptor): 0.24 nM
SMILES: CCCn1c(=O)c2[nH]c(C34CC5CC(C3)C(O)C4C5)nc2n(CCC)c1=O (stereo not drawn) [Compound 5, 8-(Trans-6-hydroxy-3-tricyclo[3.3.1.0^3,7]nonyl)-1,3-dipropylxanthine]
Amount of creatinine in blood serum ([1]; 0.1 mg/kg, control 4.55 ± 0.24 (compound 5), 4.35 ± 0.23 (compound 3)): 2.34 ± 0.24 mg/dL
Amount of uria nitrogen in blood serum ([1]; 0.1 mg/kg, control 137.2 ± 5.0 (compound 5), 139.7 ± 10.2 (compound 3)): 74.4 ± 7.7 mg/dL

Ki (adenosine A1 receptor): 0.96 nM
SMILES: CCCn1c(=O)c2[nH]c(C34CC5CC(CC3C5)C4)nc2n(CCCO)c1=O [Compound 6, 3-(3-Hydroxypropyl)-8-(3-tricyclo[3.3.1.0^3,7]nonyl)-1-propylxanthine]
Increase in amount of K+ excreted Δ(%) (Diuretic Effect; 0.025 mg/kg): 5.1%
Increase in amount of Na+ excreted Δ(%) (Diuretic Effect; 0.025 mg/kg): 111%
Increase in amount of urine Δ(%) (Diuretic Effect; 0.025 mg/kg): 134%
Na+/K+ (Diuretic Effect; 0.025 mg/kg): 2.00
Increase in amount of K+ excreted Δ(%) (Diuretic Effect; 0.1 mg/kg): 24%
Increase in amount of Na+ excreted Δ(%) (Diuretic Effect; 0.1 mg/kg): 276%
Increase in amount of urine Δ(%) (Diuretic Effect; 0.1 mg/kg): 396%
Na+/K+ (Diuretic Effect; 0.1 mg/kg): 3.03
Amount of creatinine in blood serum [1, 4]: 2.23 ± 0.15 mg/dL
Amount of uria nitrogen in blood serum [1, 5]: 65.4 ± 5.6 mg/dL

Ki (adenosine A1 receptor): 6.1 nM
SMILES: CCCn1c(=O)c2[nH]c(C34CC5CC(CC3C5)C4)nc2n(CC(C)O)c1=O (stereo not shown) [Compound 7, 3-(2-hydroxypropyl) -8-(3tricyclo[3.3.1.0^3,7]nonyl)-1-propylxanthine]
Increase in amount of K+ excreted Δ(%) (Diuretic Effect; 0.01 mg/kg): 33%
Increase in amount of Na+ excreted Δ(%) (Diuretic Effect; 0.01 mg/kg): 97%
Increase in amount of urine Δ(%) (Diuretic Effect; 0.01 mg/kg): 140%
Na+/K+ (Diuretic Effect; 0.01 mg/kg): 1.48
Increase in amount of K+ excreted Δ(%) (Diuretic Effect; 0.1 mg/kg): 23%
Increase in amount of Na+ excreted Δ(%) (Diuretic Effect; 0.1 mg/kg): 138%
Increase in amount of urine Δ(%) (Diuretic Effect; 0.1 mg/kg): 200%
Na+/K+ (Diuretic Effect; 0.1 mg/kg): 1.93
Amount of creatinine in blood serum [1, 4]: 2.28 ± 0.22 mg/dL
Amount of uria nitrogen in blood serum [1, 5]: 70.0 ± 9.8 mg/dL

Ki (adenosine A1 receptor): 5.1 nM
SMILES: CCCn1c(=O)c2[nH]c(C34CC5CC(CC(O)(C5)C3)C4)nc2n(CCC)c1=O [Compound 8, 8-(3-Hydroxy-1-tricyclo[3.3.1.1^3,7]decyl)-1,3-dipropylxanthine]

SMILES: Cn1c(=O)c2[nH]cnc2n(C)c1=O [aminophylline, reference compound]
effect of suppressing the increase ([1]; i.p., 10 mg/kg): weak effect of suppressing the increase

SMILES: NS(=O)(=O)c1cc(C(=O)O)c(NCc2ccco2)cc1Cl [furosemide, reference compound]
effect on serum creatinine ([1]; i.p., 10 mg/kg): tendency to increase the serum creatinine
